pKi: −log10 of the molar value.
Assays:
[1] = target: α2 and/or α3 subunit of the human GABAA receptor; assay: [3H]-flumazenil displacement binding assay, α2 and/or α3 subunit; conditions: displacement of [3H]-flumazenil; human GABAA receptors stably expressed in Ltk- cells; read-out: binding affinity (Ki) for the α2 and/or α3 subunit
Description: Assay buffer: 10 mM KH2PO4, 100 mM KCl, pH 7.4 at room temperature.
Flunitrazepam 100 μM in assay buffer.
Cells resuspended in assay buffer (1 tray to 10 ml).
Supernatant is removed from cells. PBS (approximately 20 ml) is added. The cells are scraped and placed in a 50 ml centrifuge tube. The procedure is repeated with a further 10 ml of PBS to ensure that most of the cells are removed. The cells are pelleted by centrifuging for 20 min at 3000 rpm in a benchtop centrifuge, and then frozen if desired. The pellets are resuspended in 10 ml of buffer per tray (25 cm×25 cm) of cells.
Can be carried out in deep 96-well plates or in tubes. Each tube contains:
50 μl of buffer or solvent carrier (e.g. 10% DMSO) if compounds are dissolved in 10% DMSO (total); test compound or flunitrazepam (to determine non-specific binding), 10 μM final concentration.
Assays are incubated for 1 hour at 40° C., then filtered using either a Tomtec or Brandel cell harvester onto GF/B filters followed by 3×3 ml washes with ice cold assay buffer. Filters are dried and counted by liquid scintillation counting. […] Binding parameters are determined by non-linear least squares regression analysis, from which the inhibition constant Ki can be calculated for each test compound.

[2] = target: T1, α3 subunit of the human GABAA receptor relative to α1 subunit (Homo sapiens, UniProt P18507+P34903); assay: potentiation of the GABA EC20 response in stably transfected recombinant cell lines; format: cell-based; conditions: stably transfected recombinant cell lines expressing α3 vs α1 subunit of the human GABAA receptor
T1 construct: expressed in transfected cells; host or cells: stably transfected eukaryotic cells, typically mouse Ltk- fibroblasts
T1 sequence (P34903 29-492): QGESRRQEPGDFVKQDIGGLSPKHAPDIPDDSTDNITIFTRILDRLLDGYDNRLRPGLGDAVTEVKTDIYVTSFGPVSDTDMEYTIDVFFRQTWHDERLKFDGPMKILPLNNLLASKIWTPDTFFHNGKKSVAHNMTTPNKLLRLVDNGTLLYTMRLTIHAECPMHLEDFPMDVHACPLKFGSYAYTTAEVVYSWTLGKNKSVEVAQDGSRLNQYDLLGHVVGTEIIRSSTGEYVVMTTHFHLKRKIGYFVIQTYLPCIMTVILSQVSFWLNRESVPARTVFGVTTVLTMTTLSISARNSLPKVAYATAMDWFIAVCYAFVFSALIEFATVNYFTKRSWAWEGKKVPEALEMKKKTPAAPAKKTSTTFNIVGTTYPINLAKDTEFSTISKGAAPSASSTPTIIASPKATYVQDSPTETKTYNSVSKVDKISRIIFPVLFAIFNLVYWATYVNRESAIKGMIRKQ
T1 sequence (P28472 26-473 partner): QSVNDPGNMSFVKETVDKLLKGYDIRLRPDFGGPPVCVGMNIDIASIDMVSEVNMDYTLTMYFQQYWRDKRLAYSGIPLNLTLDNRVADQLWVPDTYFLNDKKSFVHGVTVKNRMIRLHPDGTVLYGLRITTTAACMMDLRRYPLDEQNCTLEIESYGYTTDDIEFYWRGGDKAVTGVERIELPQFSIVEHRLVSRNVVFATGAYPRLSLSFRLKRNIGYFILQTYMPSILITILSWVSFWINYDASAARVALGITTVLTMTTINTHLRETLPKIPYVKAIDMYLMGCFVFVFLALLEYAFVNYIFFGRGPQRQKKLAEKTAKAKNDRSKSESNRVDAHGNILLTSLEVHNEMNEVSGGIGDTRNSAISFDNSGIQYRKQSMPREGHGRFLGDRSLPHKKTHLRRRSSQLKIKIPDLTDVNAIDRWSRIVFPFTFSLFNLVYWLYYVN
T1 sequence (P18507 40-467 limits assumed): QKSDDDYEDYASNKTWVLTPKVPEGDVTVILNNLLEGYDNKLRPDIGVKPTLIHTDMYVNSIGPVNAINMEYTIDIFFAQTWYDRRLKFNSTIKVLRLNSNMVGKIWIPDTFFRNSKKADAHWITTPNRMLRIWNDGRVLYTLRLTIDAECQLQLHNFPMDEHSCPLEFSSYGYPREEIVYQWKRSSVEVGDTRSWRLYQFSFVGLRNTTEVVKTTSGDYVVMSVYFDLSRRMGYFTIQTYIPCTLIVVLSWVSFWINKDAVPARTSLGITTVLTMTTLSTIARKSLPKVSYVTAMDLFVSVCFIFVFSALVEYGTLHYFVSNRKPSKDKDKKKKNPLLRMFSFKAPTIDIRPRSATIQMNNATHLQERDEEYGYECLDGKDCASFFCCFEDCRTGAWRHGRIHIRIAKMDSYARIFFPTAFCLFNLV
Description: The potentiation of the GABA EC20 response in stably transfected cell lines expressing the α3 and α1 subunits of the human GABAA receptor can conveniently be measured by procedures analogous to the protocol described in Wafford et al., Mol. Pharmacol., 1996, 50, 670-678. The procedure will suitably be carried out utilising cultures of stably transfected eukaryotic cells, typically of stably transfected mouse Ltk^− fibroblast cells.

elevated plus maze test = conditions: in vivo
[3] = conditioned suppression of drinking test; conditions: in vivo
[4] = response sensitivity (chain-pulling) test; conditions: in vivo
[5] = brain penetration inferred from behavioural effects; format: in vivo; conditions: inferred because it elicits behavioural effects
Description: Since it elicits behavioural effects, the triazolo-pyridazine derivative of the invention plainly is brain-penetrant; in other words, it is capable of crossing the so-called “blood-brain barrier”. Advantageously, the triazolo-pyridazine derivative of the invention is capable of exerting its beneficial therapeutic action following administration by the oral route.

α3β3γ2 GABAA/BzR = α3β3γ2 GABAA/BzR (Homo sapiens, UniProt P18507+P34903); assay: biochemical
α3β3γ2 GABAA/BzR, sequence (P18507 whole entry, looked up): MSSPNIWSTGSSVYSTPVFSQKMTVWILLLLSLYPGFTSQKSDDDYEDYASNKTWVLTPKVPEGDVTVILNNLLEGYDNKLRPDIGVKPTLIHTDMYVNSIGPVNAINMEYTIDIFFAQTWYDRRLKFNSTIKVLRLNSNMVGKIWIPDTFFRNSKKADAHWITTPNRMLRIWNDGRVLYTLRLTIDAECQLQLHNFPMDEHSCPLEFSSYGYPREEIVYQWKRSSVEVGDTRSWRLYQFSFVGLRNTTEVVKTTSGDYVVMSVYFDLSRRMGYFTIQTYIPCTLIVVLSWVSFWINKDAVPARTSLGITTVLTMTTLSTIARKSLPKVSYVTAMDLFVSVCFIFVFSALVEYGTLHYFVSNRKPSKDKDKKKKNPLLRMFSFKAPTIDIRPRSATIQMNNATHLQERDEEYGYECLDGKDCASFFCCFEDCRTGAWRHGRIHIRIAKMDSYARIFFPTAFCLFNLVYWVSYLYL
α3β3γ2 GABAA/BzR, sequence (P34903 whole entry, looked up): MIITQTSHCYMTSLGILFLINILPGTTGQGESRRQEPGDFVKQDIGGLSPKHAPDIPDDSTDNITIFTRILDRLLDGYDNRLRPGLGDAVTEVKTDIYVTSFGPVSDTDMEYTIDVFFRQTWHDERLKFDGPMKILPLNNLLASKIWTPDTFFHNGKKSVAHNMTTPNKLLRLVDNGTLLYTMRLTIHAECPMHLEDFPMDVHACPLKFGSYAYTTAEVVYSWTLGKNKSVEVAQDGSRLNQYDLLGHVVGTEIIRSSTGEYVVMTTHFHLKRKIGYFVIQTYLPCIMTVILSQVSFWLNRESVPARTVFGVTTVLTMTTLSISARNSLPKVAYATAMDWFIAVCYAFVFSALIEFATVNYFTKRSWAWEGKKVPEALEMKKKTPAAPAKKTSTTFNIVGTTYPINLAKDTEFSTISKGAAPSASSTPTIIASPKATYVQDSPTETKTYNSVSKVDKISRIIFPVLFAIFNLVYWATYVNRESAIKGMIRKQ

## CCn1ncnc1COc1nn2c(-c3ccccc3F)nnc2cc1C(C)(C)C [triazolo-pyridazine derivative, 7-(1,1-dimethylethyl)-6-(2-ethyl-2H-1,2,4-triazol-3-ylmethoxy)-3-(2-fluorophenyl)-1,2,4-triazolo[4,3-b]pyridazine]
[1]
  pKi: > 9.00
[2]
  potentiation of the GABA EC20 response, α3 relative to α1: selective potentiation
Elevated plus maze test
  anxiolytic activity, elevated plus maze: positive response
[3]
  anxiolytic activity, conditioned suppression of drinking: positive response
[4]
  sedation, response sensitivity (chain-pulling) test: substantially non-sedating
[5]
  brain penetration (crossing the blood-brain barrier): brain-penetrant
α3β3γ2 GABAA/BzR
  pKi: > 9.00

Source: patent US20040259818A1, “Glucoronide adduct as gaba ligand” (priority 2001, published 2004)
